Measurements as given in article PMC9848300, “Discovery of novel enasidenib analogues targeting inhibition of mutant isocitrate dehydrogenase 2 as antileukaemic agents” (Journal of Enzyme Inhibition and Medicinal Chemistry, 2023).

How the values were obtained:
[1] = tested on: SF-539; assay: NCI 60 antitumor screening (single dose / five doses); assay type: cell-based; conditions: Homo sapiens
[2] = tested on: A498; assay: as above; assay type: cell-based; conditions: Homo sapiens; A498, five doses (0.01–100 μM); read-out: GI50
[3] = tested on: HL-60(TB); assay: as above; assay type: cell-based; conditions: Homo sapiens
[4] = tested on: SK-MEL-2; assay: as above; assay type: cell-based; conditions: Homo sapiens
[5] = tested on: NCI/ADR-RES; assay: as above; assay type: cell-based; conditions: Homo sapiens
[6] = tested on: EKVX; assay: as above; assay type: cell-based; conditions: Homo sapiens
[7] = tested on: SF-295; assay: as above; assay type: cell-based; conditions: Homo sapiens
[8] = tested on: MDA-MB-468; assay: as above; assay type: cell-based; conditions: Homo sapiens
[9] = tested on: HCT-116; assay: as above; assay type: cell-based; conditions: Homo sapiens
[10] = tested on: SK-MEL-5; assay: as above; assay type: cell-based; conditions: Homo sapiens
[11] = tested on: HCT-15; assay: as above; assay type: cell-based; conditions: Homo sapiens
[12] = tested on: SNB-75; assay: as above; assay type: cell-based; conditions: Homo sapiens
[13] = tested on: SW-620; assay: as above; assay type: cell-based, human; conditions: Homo sapiens
[14] = tested on: T-47D; assay: as above; assay type: cell-based; conditions: Homo sapiens, T47D
[15] = tested on: HT29; assay: as above; assay type: cell-based, human; conditions: Homo sapiens
[16] = tested on: 60 human subpanel cancer cell lines; assay: NCI 60 antitumor screening, mean over the panel (single dose); assay type: cell-based; conditions: mean over 60 cancer cell lines, single dose 10 μM
Method: Initially, the anticancer effects of target compounds have been assessed at a single (10 μM) dose. The obtained data have been reported as mean-graph of the percent growth (G%) of the treated cancer cells. Percentage growth inhibition (GI%) is calculated (100 − G%) and pronounced in Table 1. […] Target compounds in series (III) with manipulated linkers disclosed lower potency. Superiorly, eight s-triazine derivatives from the three series (6a, 6c, 6d, 7a, 7g, 7i, 7l, and 8b) have shown potent broad-spectrum anticancer activity against most the examined cell lines, whereas most of the remaining triazine derivatives, 20 derivatives, have exerted selective anti-proliferative actions towards certain cancer cell lines (Supplementary).
The antitumor screening was performed for 60 human cancer cell lines under the protocol of NCI (www.dtp.nci.nih.gov), the Drug Evaluation Branch, Bethesda, MD. All submitted compounds were nominated based on the degree of structural diversity and computer modelling techniques for evaluation of their anticancer activity. The screening process for antineoplastic activity passes through two successive levels, starting with the assessment of target compounds at a single dose of 10 μM against 60 cancer cell lines on nine types of human tumours. These experiments were done on a triplicate following. The output from the single‐dose screening was covered as a mean graph, and then, analysed by the COMPARE program. Finally, the compounds which disclosed subpanel cancer cell growth (G %) equal to or less than 10% in at least eight cancer cell lines get to pass the assessment against the 60 cell lines at five doses (0.01–100 μM). By using GraphPad Prism version 9.0 (Graphpad Software Inc., La Jolla, CA), GI50, TGI, as well as LC50 dose‐response parameters were computed and presented for each compound (Supplementary information)[55–57].

[17] = tested on: COLO 205; assay: NCI 60 antitumor screening (single dose / five doses); assay type: cell-based; conditions: Homo sapiens
[18] = tested on: SN 12C; assay: as above; assay type: cell-based; conditions: Homo sapiens, SN12C
[19] = tested on: SK-MEL-28; assay: as above; assay type: cell-based; conditions: Homo sapiens
[20] = tested on: MDA-MB-231/ATCC; assay: as above; assay type: cell-based; conditions: Homo sapiens
[21] = tested on: UO-31; assay: as above; assay type: cell-based; conditions: Homo sapiens
[22] = tested on: LOX IMVI; assay: as above; assay type: cell-based; conditions: Homo sapiens
[23] = tested on: UACC-62; assay: as above; assay type: cell-based; conditions: Homo sapiens
[24] = tested on: ACHN; assay: as above; assay type: cell-based; conditions: Homo sapiens
[25] = tested on: CCRF-CEM; assay: as above; assay type: cell-based; conditions: Homo sapiens
[26] = tested on: MOLT-4; assay: as above; assay type: cell-based; conditions: Homo sapiens
[27] = tested on: IGROV1; assay: as above; assay type: cell-based; conditions: Homo sapiens, IGROV-1
[28] = tested on: K-562; assay: as above; assay type: cell-based; conditions: Homo sapiens, K562
[29] = tested on: MALME-3M; assay: as above; assay type: cell-based; conditions: Homo sapiens

## Oc1ccccc1/C=N/Nc1nc(N/N=C/c2ccccc2O)nc(N2CCOCC2)n1 [compound 6a, 2-[(1e)-(2-{4-[(E)-2-[(2-Hydroxyphenyl)methylidene]hydrazin-1-yl]-6-(morpholin-4-yl)-1,3,5-triazin-2-yl}hydrazin-1-ylidene)methyl]phenol]
[1]; SF-539 (CNS cancer), single dose 10 μM, read-out: Growth inhibition percentage (GI %)
  inhibition at 10 µM: 48.2%
[1]; SF-539, five doses (0.01–100 μM), read-out: GI50
  GI50: 7290 nM
[2]
  GI50: 1090 nM
[3]; HL-60(TB) (leukaemia), single dose 10 μM, read-out: Growth inhibition percentage (GI %)
  inhibition at 10 µM: 96.3%
[3]; HL-60(TB), five doses (0.01–100 μM), read-out: GI50
  GI50: 190 nM
[4]; SK-MEL-2 (melanoma), single dose 10 μM, read-out: Growth inhibition percentage (GI %)
  inhibition at 10 µM: 28%
[4]; SK-MEL-2, five doses (0.01–100 μM)
  GI50: 6060 nM
[5]; NCI/ADR-RES (ovarian cancer), single dose 10 μM, read-out: Growth inhibition percentage (GI %)
  inhibition at 10 µM: 77.1%
[5]; NCI/ADR-RES, five doses (0.01–100 μM), read-out: GI50
  GI50: 690 nM
[6]; EKVX (non-small cell lung cancer), single dose 10 μM, read-out: Growth inhibition percentage (GI %)
  inhibition at 10 µM: 77.8%
[6]; EKVX, five doses (0.01–100 μM), read-out: GI50
  GI50: 3280 nM
[7]; SF-295 (CNS cancer), single dose 10 μM, read-out: Growth inhibition percentage (GI %)
  inhibition at 10 µM: 80.4%
[7]; SF-295, five doses (0.01–100 μM), read-out: GI50
  GI50: 7670 nM
[8]; MDA-MB-468 (breast cancer), single dose 10 μM, read-out: Growth inhibition percentage (GI %)
  inhibition at 10 µM: 60.8%
[8]; MDA-MB-468, five doses (0.01–100 μM), read-out: GI50
  GI50: 4110 nM
[9]; HCT-116 (colon cancer), single dose 10 μM, read-out: Growth inhibition percentage (GI %)
  inhibition at 10 µM: 80.8%
[9]; HCT-116, five doses (0.01–100 μM), read-out: GI50
  GI50: 820 nM
[10]; SK-MEL-5 (melanoma), single dose 10 μM, read-out: Growth inhibition percentage (GI %)
  inhibition at 10 µM: 34.2%
[10]; SK-MEL-5, five doses (0.01–100 μM), read-out: GI50
  GI50: 5860 nM
[11]; HCT-15 (colon cancer), single dose 10 μM, read-out: Growth inhibition percentage (GI %)
  inhibition at 10 µM: 96.1%
[11]; HCT-15, five doses (0.01–100 μM), read-out: GI50
  GI50: 240 nM
[12]; SNB-75 (CNS cancer), single dose 10 μM, read-out: Growth inhibition percentage (GI %)
  inhibition at 10 µM: 104%
[12]; SNB-75, five doses (0.01–100 μM), read-out: GI50
  GI50: 1820 nM
[13]; SW-620, SW-620, five doses (0.01–100 μM), read-out: GI50
  GI50: 1780 nM
[13]; SW-620 (colon cancer), single dose 10 μM, read-out: Growth inhibition percentage (GI %)
  inhibition at 10 µM: 61.5%
[14]; T-47D (breast cancer), single dose 10 μM, read-out: Growth inhibition percentage (GI %)
  inhibition at 10 µM: 53.9%
[14]; T-47D, five doses (0.01–100 μM), read-out: GI50
  GI50: 3340 nM
[15]; HT-29, HT29, five doses (0.01–100 μM), read-out: GI50
  GI50: 5890 nM
[15]; HT-29, HT29 (colon cancer), single dose 10 μM, read-out: Growth inhibition percentage (GI %)
  inhibition at 10 µM: 65.8%
[16]
  Mean GI %: 66.07%
[17]; COLO 205 (colon cancer), single dose 10 μM, read-out: Growth inhibition percentage (GI %)
  inhibition at 10 µM: 52%
[17]; COLO 205, five doses (0.01–100 μM), read-out: GI50
  GI50: 5530 nM
[18]; SN 12C (renal cancer), single dose 10 μM, read-out: Growth inhibition percentage (GI %)
  inhibition at 10 µM: 72.8%
[18]; SN 12C, five doses (0.01–100 μM), read-out: GI50
  GI50: 18300 nM
[19]; SK-MEL-28 (melanoma), single dose 10 μM, read-out: Growth inhibition percentage (GI %)
  inhibition at 10 µM: 72%
[19]; SK-MEL-28, five doses (0.01–100 μM), read-out: GI50
  GI50: 3200 nM
[20]; MDA-MB-231/ ATCC, five doses (0.01–100 μM), read-out: GI50
  GI50: 2420 nM
[20]; MDA-MB-231/ATCC (breast cancer), single dose 10 μM, read-out: Growth inhibition percentage (GI %)
  inhibition at 10 µM: 63.7%
[21]; UO-31 (renal cancer), single dose 10 μM, read-out: Growth inhibition percentage (GI %)
  inhibition at 10 µM: 80.2%
[21]; UO-31, five doses (0.01–100 μM), read-out: GI50
  GI50: 370 nM
[22]; LOX IMVI (melanoma), single dose 10 μM, read-out: Growth inhibition percentage (GI %)
  inhibition at 10 µM: 96%
[22]; LOX IMVI, five doses (0.01–100 μM), read-out: GI50
  GI50: 280 nM
[23]; UACC-62 (melanoma), single dose 10 μM, read-out: Growth inhibition percentage (GI %)
  inhibition at 10 µM: 11.2%
[23]; UACC-62, five doses (0.01–100 μM), read-out: GI50
  GI50: 2450 nM
[24]; ACHN (renal cancer), single dose 10 μM, read-out: Growth inhibition percentage (GI %)
  inhibition at 10 µM: 71.9%
[24]; ACHN, five doses (0.01–100 μM), read-out: GI50
  GI50: 1580 nM
[25]; CCRF-CEM (leukaemia), single dose 10 μM, read-out: Growth inhibition percentage (GI %)
  inhibition at 10 µM: 57.6%
[25]; CCRF-CEM, five doses (0.01–100 μM), read-out: GI50
  GI50: 530 nM
[26]; MOLT-4 (leukaemia), single dose 10 μM, read-out: Growth inhibition percentage (GI %)
  inhibition at 10 µM: 54.9%
[26]; MOLT-4, five doses (0.01–100 μM), read-out: GI50
  GI50: 1550 nM
[27]; IGROV1 (ovarian cancer), single dose 10 μM, read-out: Growth inhibition percentage (GI %)
  inhibition at 10 µM: 63%
[27]; IGROV1, five doses (0.01–100 μM), read-out: GI50
  GI50: 970 nM
[28]; K-562 (leukaemia), single dose 10 μM, read-out: Growth inhibition percentage (GI %)
  inhibition at 10 µM: 74.6%
[28]; K-562, five doses (0.01–100 μM), read-out: GI50
  GI50: 680 nM
[29]; MALME-3M (melanoma), single dose 10 μM, read-out: Growth inhibition percentage (GI %)
  inhibition at 10 µM: 47.4%
[29]; MALME-3M, five doses (0.01–100 μM), read-out: GI50
  GI50: 8690 nM
